Laboratory results from patent publication US20080269204A1, “Compounds and Methods of Use Thereof” (priority 2004, published 2008).

system: TNF-α production by PMBC; assay: Inhibition of TNF-α production by peripheral blood monocyte cells (PMBC), LPS-stimulated; assay type: cell-based; settings: 1 ug/mL LPS, 24 hours at 37° C, TNF-α quantified by EIA
Experimental: Inhibition of TNF-α Production By Peripheral Blood Monocyte Cells (PMBC)
PMBC in RPMI 1640 Cell Culture Medium (containing 1% Penicillin and 1% Streptomycin) are aliquoted into 96-well plates at 5×10^5 cells/well and pre-incubated with test compounds for 30 minutes at 37° C. After incubation, 1 ug/mL LPS is added to each well to stimulate TNF-α production and the plate is incubated for 24 hours at 37° C. After incubation, the supernatant is removed and the TNF-α secreted is quantified using EIA detection kits commercially available from R&D Systems (USA). The results from this assay are expressed as percent inhibition of control activity, with the control being stimulated wells with no test compound. Dexamethasone is used as a standard reference compound in the assay and is tested with each experiment. All test compounds are diluted from 10 mM stock solutions in 100% DMSO.

IC50	SMILES
0.26 µM	O=C1COc2ccc(F)cc2N1CCCCCB(O)O [Example 3, 5-(6-fluoro-2,3-dihydro-3-oxobenzo[b][1,4]oxazin-4-yl)pentylboronic acid]
0.7 µM	O=C1CSc2ccccc2N1CCCCCB(O)O [Example 4, 5-(2,3-dihydro-3-oxobenzo[b][1,4]thiazin-4-yl)pentylboronic acid]
0.08 µM	O=C1CSc2cc(Cl)ccc2N1CCCCCB(O)O [Example 5, 5-(7-chloro-2,3-dihydro-3-oxobenzo[b][1,4]thiazin-4-yl)pentylboronic acid]
0.074 µM	O=C1COc2cc([N+](=O)[O-])ccc2N1CCCCCB(O)O [Example 6, 5-(2,3-dihydro-7-nitro-3-oxobenzo[b][1,4]oxazin-4-yl)pentylboronic acid]
0.36 µM	O=C1COc2ccccc2N1CCCCCB(O)O [Example 7, 5-(2,3-dihydro-3-oxobenzo[b][1,4]oxazin-4-yl)pentylboronic acid]
0.81 µM	CCOC(=O)CC1Sc2ccccc2N(CCCCCB(O)O)C1=O (stereo not drawn) [Example 8, ethyl 2-(3,4-dihydro-3-oxo-4-(5-pentylboronic acid)-2H-benzo[b][1,4]thiazin-2-yl)acetate]
